US20110008465A1, “SESQUITERPENE FORMULATIONS, KITS AND METHODS OF USE THEREOF” (priority 2007, published 2011)

Legend:
[1] = tested on: MCF-7; assay: Cytotoxicity of alpha-humulene and isocaryophyllene alone or combined with beta-caryophyllene; format: cell-based, human
Method: Combinations of beta-caryophyllene and two other antitumor agents, isocaryophyllene and α-humulene, were also tested as described above with some adaptations. 5×10^3 cells per well were allowed to adhere for 16 hours before treatment. The final concentration of solvent in the culture medium was maintained at 0.5% (volume/volume) to avoid toxicity. These combinations were tested on MCF-7.

[2] = tested on: B16-F1 mouse skin melanoma
Method: Formulations: Two formulations were used for this study. The first one was prepared for groups treated with paclitaxel alone while the other one was prepared for the paclitaxel/caryophyllene combination (Table 5). […] These solutions were further diluted with 19 mL of a solution containing soya lecithin (2.85 mL), glycerol (0.95 mL) and polysorbate 80 (380 μL) in water (14.82 mL). Each solution was prepared fresh and used within 30 minutes after preparation (see Table 5 below for presenting formulations).
Mice: All the experiments were carried out using B6D2F1 male mice, 6-weeks old (Charles Rivers Inc., St-Constant, QC). They were handled and cared for in accordance with the Guide for the Care and Use of Laboratory Animals.
Cells (passages #7 to 21) were grown to 90% confluence in complete MEM medium containing Earle's salts and L-glutamine (Mediatech Cellgro, Va.), 10% fetal bovine serum (Hyclone), vitamins (1×), penicillin (100 I.U./mL) and streptomycin (100 μg/mL), essential amino acids (1×) and sodium pyruvate (1×) (Mediatech Cellgro, Va.). Cells were then harvested using 0.5% trypsin-EDTA (Mediatech Cellgro, Va.). Cells were counted using a hemacytometer and resuspended in MEM medium without SVF. 100 μL of a solution containing […] per well were inoculated subcutaneously in each mice.
Administration: To establish animal tumor models, 2.5×10^6 cells were resuspended in 100 μL of MEM medium without SVF (Mediatech Cellgro, Va.) and injected into the subcutaneous tissue of the right flank of the mice on day zero. […] Treatments by intravenous injections (tail vein) were performed on days 7, 10, 13.
Data analysis: Antitumor activity was evaluated according to two parameters as follows:
CTW values were averaged within each group during and after drug treatment over a period of 17 days post-tumor implant. […] Values of p<0.05 were considered statistically significant.

[3] = tested on: tumor cell lines; assay: Comparative potentiating effect of beta-caryophyllene and Tesmilifene (DPPE) combined with 5 antitumor classes; format: cell-based
Method: (§1) Each solution was prepared fresh and use within 1 hour after preparation.
(§2) Cells were then harvested using trypsine-EDTA. Cells were counted using a hemocytometer and resuspended in DMEM+10% FBS medium.
(§3) Proliferation assay: Increasing concentrations of the anticancer agents and/or beta-caryophyllene were added to 96-well plate (100 μL per well). The final concentration of solvent in the culture medium was maintained below 0.5% (volume/volume) to avoid solvent toxicity.
(§4) The cells were incubated for 48 h at 37° C. and 5% CO2. Cytotoxicity was assessed using the resazurin reduction test (O'Brien et al., 2000). Fluorescence was measured on an automated 96-well Fluoroskan Ascent FI™ plate reader (Labsystems) using excitation and emission wavelengths of 530 nm and 590 nm, respectively. Resazurin was then removed.
(§5) Microplates were frozen at −20° C. overnight. Plates were thawed, a volume of 100 μl of 0.01% SDS in water was added to the wells, the plates were shaken at room temperature for 3 hours and then frozen once more at −20° C. overnight. […] Plates were shaken in the dark (at room temperature) for at least 2 hours, and fluorescence was measured on an automated 96-well Fluoroskan Ascent FI™ plate reader (Labsystems) using excitation and emission wavelengths of 360 nm and 460 nm, respectively.
(§6) Results were analyzed using the Chou and Talalay method (9) and may be interpreted as follow: Cl>1 represents an antagonist effect of beta-caryophyllene with the corresponding anticancer agent; Cl=1 represents an additive effect of beta-caryophyllene with the corresponding anticancer agent; Cl<1 represents a potentiating effect of beta-caryophyllene with the corresponding anticancer agent.

[4] = tested on: PC-3 (prostate cancer); assay: Chou and Talalay combination assay with beta-caryophyllene; format: cell-based, human; settings: anticancer drug in combination with beta-caryophyllene; Chou and Talalay CI; 48 h
Method: as §1, §2, §3, §4, §5

[5] = tested on: MCF-7 (breast cancer); assay: as above; format: cell-based, human; settings: anticancer drug in combination with beta-caryophyllene; Chou and Talalay CI; 48 h
Method: as §1, §2, §3, §4, §5, §6

[6] = tested on: MDA-MB-231 (breast cancer); assay: as above; format: cell-based, human; settings: anticancer drug in combination with beta-caryophyllene; Chou and Talalay CI; 48 h
Method: as §1, §2, §3, §4, §5, §6

[7] = tested on: A-549 (lung cancer); assay: as above; format: cell-based, human; settings: anticancer drug in combination with beta-caryophyllene; Chou and Talalay CI; 48 h
Method: as §1, §2, §3, §4, §5, §6

[8] = tested on: DLD-1 (colon cancer); assay: as above; format: cell-based, human; settings: anticancer drug in combination with beta-caryophyllene; Chou and Talalay CI; 48 h
Method: as §1, §2, §3, §4, §5, §6

[9] = tested on: PA-1 (ovary cancer); assay: as above; format: cell-based, human; settings: anticancer drug in combination with beta-caryophyllene; Chou and Talalay CI; 48 h
Method: as §1, §2, §3, §4, §5, §6

[10] = tested on: U-251 (human glioblastoma); assay: as above; format: cell-based; settings: anticancer drug in combination with beta-caryophyllene; Chou and Talalay CI; 48 h
Method: as §1, §2, §3, §4, §5, §6

[11] = tested on: GL-261 (murine glioblastoma); assay: as above; format: cell-based; settings: anticancer drug in combination with beta-caryophyllene; Chou and Talalay CI; 48 h
Method: as §1, §2, §3, §4, §5, §6

[12] = tested on: B16 (murine melanoma); assay: as above; format: cell-based; settings: anticancer drug in combination with beta-caryophyllene; Chou and Talalay CI; 48 h
Method: as §1, §2, §3, §4, §5, §6

[13] = tested on: MEL-2 (human melanoma); assay: as above; format: cell-based; settings: anticancer drug in combination with beta-caryophyllene; Chou and Talalay CI; 48 h
Method: as §1, §2, §3, §4, §5, §6

[14] = combined with 10 μg/ml of beta-caryophyllene
[15] = paclitaxel 2 mg/kg, beta-caryophyllene 1%, i.v. days 7, 10, 13

C/C1=C\CC/C(C)=C/CC(C)(C)/C=C/C1 [∝-humulene, α-humulene]
IC50 [1, 14]: 15 µg/mL
IC50 ([1]; used alone): 25 µg/mL

C=C1CC/C=C(\C)CC[C@@H]2[C@@H]1CC2(C)C [beta-caryophyllene, (1R,4E,9S)-4-11,11-trimethyl-8-methylenebicyclo[7.2.0]undec-4-ene]
effect on tumor growth (in words) ([2]; B16 melanoma-bearing mice, i.v. days 7, 10, 13): do not significantly inhibit tumor growth
Observations: animals surviving on day 17 ([2]; male, B6D2F1, mouse, in vivo, 17 day): 08/08 animals
Treated/Control (%) on day 13 [2, 15]: 95%
Treated/Control (%) on day 14 [2, 15]: 100%
Treated/Control (%) on day 15 [2, 15]: 89%
Treated/Control (%) on day 16 [2, 15]: 91%
Treated/Control (%) on day 17 [2, 15]: 111%
Alkylating agents % ([3]; class (1) Very High): 50%
Alkylating agents Total (60) ([3]; class (1) Very High): 30
Antimitotic agents % ([3]; class (1) Very High): 60%
Antimitotic agents Total (40) ([3]; class (1) Very High): 24
RNA/DNA antimetabolites % ([3]; class (1) Very High): 30%
RNA/DNA antimetabolites Total (20) ([3]; class (1) Very High): 6
Topoisomerase II inhibitors % ([3]; class (1) Very High): 33%
Topoisomerase II inhibitors Total (40) ([3]; class (1) Very High): 13
kinase inhibitors % ([3]; class (1) Very High): 35%
kinase inhibitors Total (20) ([3]; class (1) Very High): 7
Alkylating agents % ([3]; class (2) High): 15%
Alkylating agents Total (60) ([3]; class (2) High): 9
Antimitotic agents % ([3]; class (2) High): 15%
Antimitotic agents Total (40) ([3]; class (2) High): 6
RNA/DNA antimetabolites % ([3]; class (2) High): 20%
RNA/DNA antimetabolites Total (20) ([3]; class (2) High): 4
Topoisomerase II inhibitors % ([3]; class (2) High): 18%
Topoisomerase II inhibitors Total (40) ([3]; class (2) High): 7
kinase inhibitors % ([3]; class (2) High): 30%
kinase inhibitors Total (20) ([3]; class (2) High): 6
Alkylating agents % ([3]; class (3) Moderate): 23%
Alkylating agents Total (60) ([3]; class (3) Moderate): 14
Antimitotic agents % ([3]; class (3) Moderate): 23%
Antimitotic agents Total (40) ([3]; class (3) Moderate): 9
RNA/DNA antimetabolites % ([3]; class (3) Moderate): 15%
RNA/DNA antimetabolites Total (20) ([3]; class (3) Moderate): 3
Topoisomerase II inhibitors % ([3]; class (3) Moderate): 28%
Topoisomerase II inhibitors Total (40) ([3]; class (3) Moderate): 11
kinase inhibitors % ([3]; class (3) Moderate): 20%
kinase inhibitors Total (20) ([3]; class (3) Moderate): 4
Alkylating agents % ([3]; class (4) Weak): 4%
Alkylating agents Total (60) ([3]; class (4) Weak): 2
Antimitotic agents % ([3]; class (4) Weak): 3%
Antimitotic agents Total (40) ([3]; class (4) Weak): 1
RNA/DNA antimetabolites % ([3]; class (4) Weak): 10%
RNA/DNA antimetabolites Total (20) ([3]; class (4) Weak): 2
Topoisomerase II inhibitors % ([3]; class (4) Weak): 10%
Topoisomerase II inhibitors Total (40) ([3]; class (4) Weak): 4
kinase inhibitors % ([3]; class (4) Weak): 5%
kinase inhibitors Total (20) ([3]; class (4) Weak): 1
Alkylating agents % ([3]; class (5) Additive effect): 0%
Alkylating agents Total (60) ([3]; class (5) Additive effect): 0
Antimitotic agents % ([3]; class (5) Additive effect): 0%
Antimitotic agents Total (40) ([3]; class (5) Additive effect): 0
RNA/DNA antimetabolites % ([3]; class (5) Additive effect): 0%
RNA/DNA antimetabolites Total (20) ([3]; class (5) Additive effect): 0
Topoisomerase II inhibitors % ([3]; class (5) Additive effect): 8%
Topoisomerase II inhibitors Total (40) ([3]; class (5) Additive effect): 3
kinase inhibitors % ([3]; class (5) Additive effect): 5%
kinase inhibitors Total (20) ([3]; class (5) Additive effect): 1
Alkylating agents % ([3]; class (6) Antagonist effect): 7%
Alkylating agents Total (60) ([3]; class (6) Antagonist effect): 4
Antimitotic agents % ([3]; class (6) Antagonist effect): 0%
Antimitotic agents Total (40) ([3]; class (6) Antagonist effect): 0
RNA/DNA antimetabolites % ([3]; class (6) Antagonist effect): 25%
RNA/DNA antimetabolites Total (20) ([3]; class (6) Antagonist effect): 5
Topoisomerase II inhibitors % ([3]; class (6) Antagonist effect): 5%
Topoisomerase II inhibitors Total (40) ([3]; class (6) Antagonist effect): 2
kinase inhibitors % ([3]; class (6) Antagonist effect): 5%
kinase inhibitors Total (20) ([3]; class (6) Antagonist effect): 1
drugs exhibiting a potentiating effect when combined ([3]; drugs tested at their IC50 values): 91%
effect on anticancer activity of alpha-humulene and isocaryophyllene ([1]; beta-caryophyllene 2.5 to 40 μg/ml): increases significantly anticancer activity

C=C1CC/C=C(/C)CC[C@@H]2[C@@H]1CC2(C)C [isocaryophyllene]
IC50 [1, 14]: 16 µg/mL
IC50 ([1]; used alone): 30 µg/mL

COc1cc([C@@H]2c3cc4c(cc3[C@@H](O[C@@H]3O[C@@H]5CO[C@@H](C)O[C@H]5[C@H](O)[C@H]3O)[C@H]3COC(=O)[C@H]23)OCO4)cc(OC)c1O [Etoposide, etoposide]
Potentiating activity PC-3 [4]: (6) (Antagonist effect: CI > 1)
Potentiating activity MCF-7 [5]: (1) (Very High: CI equal or below 1 at IC20 and Cl below 0.6 to IC50)
Potentiating activity MDA [6]: (1) (Very High: CI equal or below 1 at IC20 and Cl below 0.6 to IC50)
Potentiating activity A-549 [7]: (4) (Weak: 0.8 < CI < 1 at IC50)
Potentiating activity DLD-1 [8]: (3) (Moderate: 0.5 < CI < 0.8 at IC50)
Potentiating activity PA-1 [9]: (1) (Very High: potentiating or additive activity to IC20 and CI < 0.6 to IC50)
Potentiating activity U-251 [10]: (3) (Moderate: 0.5 < CI < 0.8 to IC50)
Potentiating activity GL-261 [11]: (2) (High: CI < 0.5 to IC50)
Potentiating activity B16 [12]: (3) (Moderate: 0.5 < CI < 0.8 to IC50)
Potentiating activity MEL-2 [13]: (3) (Moderate: 0.5 < CI < 0.8 to IC50)

N.N.O=C([O-])C1(C(=O)[O-])CCC1.[Pt+2] [Carboplatin, carboplatin]
Potentiating activity PC-3 [4]: (6) (Antagonist effect: CI > 1)
Potentiating activity MCF-7 [5]: (1) (Very High: CI equal or below 1 at IC20 and Cl below 0.6 to IC50)
Potentiating activity MDA [6]: (3) (Moderate: 0.5 < CI < 0.8 at IC50)
Potentiating activity A-549 [7]: (1) (Very High: CI equal or below 1 at IC20 and Cl below 0.6 to IC50)
Potentiating activity DLD-1 [8]: (3) (Moderate: 0.5 < CI < 0.8 at IC50)
Potentiating activity PA-1 [9]: (3) (Moderate: 0.5 < CI < 0.8 to IC50)
Potentiating activity U-251 [10]: (3) (Moderate: 0.5 < CI < 0.8 to IC50)
Potentiating activity GL-261 [11]: (2) (High: CI < 0.5 to IC50)
Potentiating activity B16 [12]: (1) (Very High: potentiating or additive activity to IC20 and CI < 0.6 to IC50)
Potentiating activity MEL-2 [13]: (3) (Moderate: 0.5 < CI < 0.8 to IC50)
